# Assay results from PubChem BioAssay AID1963825 (Molecular Pharmacology Branch, DTP, NCI, 2024).
# Experiment: Anticancer human tumor 997537-175-T-J1-PDC patient-derived colon adenocarcinoma cell line growth inhibition [POLQ]
# Conditions: 997537-175-T-J1-PDC complex spheroid viability, combination with POLQ inhibitors; curve of first compound; second compound 10 µM
# In short: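 PDC + HUVEC + MSC complex spheroids; POLQ inhibitors ± partner drugs; top conc. at/near clinical Cmax, else 10 microM (SN-38 1 microM), half-log dilutions; 37 degrees C, 5% CO2.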
# 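Also: luminescence signal used as a surrogate for viable cells; spheroids exposed to drugs for seven days before readout.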
row,SMILES,IC50
1,O=C(Nc1ccc(O)c(NS(=O)(=O)c2ccc(F)cc2)c1)c1ccc(-c2ccccc2)cc1 + Nc1ccc(C#CCN(C(=O)Cc2ncc(C(F)(F)F)cc2C(F)(F)F)c2ccc(F)cc2)nn1,> 10 µM
2,CC1COCCN1c1cc(-c2ccnn2C)c2ccnc(-c3ccn[nH]3)c2n1 (stereo unspecified) + Nc1ccc(C#CCN(C(=O)Cc2ncc(C(F)(F)F)cc2C(F)(F)F)c2ccc(F)cc2)nn1,0.305 µM
3,CC1COCCN1c1cc(C2(O)CC3CCC(C2)O3)c2cnn(-c3ccn[nH]3)c2n1 (stereo unspecified) + Cc1cccc(N(C)C(=O)C2C(O)CCN2c2nc(C)cc(C(F)(F)F)c2C#N)c1,3.99 µM
4,CC1COCCN1c1cc(C2(O)CC3CCC(C2)O3)c2cnn(-c3ccn[nH]3)c2n1 (stereo unspecified) + COC1C(OC(N)=O)C(O)C(Oc2ccc3c(O)c(NC(=O)c4ccc(O)c(CC=C(C)C)c4)c(=O)oc3c2C)OC1(C)C,> 10 µM

# Same assay, conditions: 997537-175-T-J1-PDC complex spheroid viability, combination with POLQ inhibitors; second compound 0.0316 µM; first compound 0.0316 µM; stronger effect = lower value
row,SMILES,"viability, T/C"
1,COc1cc2cc(C(=O)CCC(=O)O)sc2cc1OC + COC1C(OC(N)=O)C(O)C(Oc2ccc3c(O)c(NC(=O)c4ccc(O)c(CC=C(C)C)c4)c(=O)oc3c2C)OC1(C)C,95.1%
2,O=C(Nc1ccc(O)c(NS(=O)(=O)c2ccc(F)cc2)c1)c1ccc(-c2ccccc2)cc1 + Nc1ccc(C#CCN(C(=O)Cc2ncc(C(F)(F)F)cc2C(F)(F)F)c2ccc(F)cc2)nn1,106%
3,CC1COCCN1c1cc(-c2ccnn2C)c2ccnc(-c3ccn[nH]3)c2n1 (stereo unspecified) + Nc1ccc(C#CCN(C(=O)Cc2ncc(C(F)(F)F)cc2C(F)(F)F)c2ccc(F)cc2)nn1,103%
4,CC1COCCN1c1cc(C2(O)CC3CCC(C2)O3)c2cnn(-c3ccn[nH]3)c2n1 (stereo unspecified) + Cc1cccc(N(C)C(=O)C2C(O)CCN2c2nc(C)cc(C(F)(F)F)c2C#N)c1,79.8%
5,CC1COCCN1c1cc(C2(O)CC3CCC(C2)O3)c2cnn(-c3ccn[nH]3)c2n1 (stereo unspecified) + COC1C(OC(N)=O)C(O)C(Oc2ccc3c(O)c(NC(=O)c4ccc(O)c(CC=C(C)C)c4)c(=O)oc3c2C)OC1(C)C,72.4%

# Same assay, conditions: 997537-175-T-J1-PDC complex spheroid viability, combination with POLQ inhibitors; second compound 0.0316 µM; first compound 0.1 µM; stronger effect = lower value
row,SMILES,"viability, T/C"
1,COc1cc2cc(C(=O)CCC(=O)O)sc2cc1OC + COC1C(OC(N)=O)C(O)C(Oc2ccc3c(O)c(NC(=O)c4ccc(O)c(CC=C(C)C)c4)c(=O)oc3c2C)OC1(C)C,98.6%
2,O=C(Nc1ccc(O)c(NS(=O)(=O)c2ccc(F)cc2)c1)c1ccc(-c2ccccc2)cc1 + Nc1ccc(C#CCN(C(=O)Cc2ncc(C(F)(F)F)cc2C(F)(F)F)c2ccc(F)cc2)nn1,108%
3,CC1COCCN1c1cc(-c2ccnn2C)c2ccnc(-c3ccn[nH]3)c2n1 (stereo unspecified) + Nc1ccc(C#CCN(C(=O)Cc2ncc(C(F)(F)F)cc2C(F)(F)F)c2ccc(F)cc2)nn1,83.6%
4,CC1COCCN1c1cc(C2(O)CC3CCC(C2)O3)c2cnn(-c3ccn[nH]3)c2n1 (stereo unspecified) + Cc1cccc(N(C)C(=O)C2C(O)CCN2c2nc(C)cc(C(F)(F)F)c2C#N)c1,96%
5,CC1COCCN1c1cc(C2(O)CC3CCC(C2)O3)c2cnn(-c3ccn[nH]3)c2n1 (stereo unspecified) + COC1C(OC(N)=O)C(O)C(Oc2ccc3c(O)c(NC(=O)c4ccc(O)c(CC=C(C)C)c4)c(=O)oc3c2C)OC1(C)C,70.1%

# Same assay, conditions: 997537-175-T-J1-PDC complex spheroid viability, combination with POLQ inhibitors; second compound 0.0316 µM; first compound 0.316 µM; stronger effect = lower value
row,SMILES,"viability, T/C"
1,COc1cc2cc(C(=O)CCC(=O)O)sc2cc1OC + COC1C(OC(N)=O)C(O)C(Oc2ccc3c(O)c(NC(=O)c4ccc(O)c(CC=C(C)C)c4)c(=O)oc3c2C)OC1(C)C,88.1%
2,O=C(Nc1ccc(O)c(NS(=O)(=O)c2ccc(F)cc2)c1)c1ccc(-c2ccccc2)cc1 + Nc1ccc(C#CCN(C(=O)Cc2ncc(C(F)(F)F)cc2C(F)(F)F)c2ccc(F)cc2)nn1,106%
3,CC1COCCN1c1cc(-c2ccnn2C)c2ccnc(-c3ccn[nH]3)c2n1 (stereo unspecified) + Nc1ccc(C#CCN(C(=O)Cc2ncc(C(F)(F)F)cc2C(F)(F)F)c2ccc(F)cc2)nn1,58.3%
4,CC1COCCN1c1cc(C2(O)CC3CCC(C2)O3)c2cnn(-c3ccn[nH]3)c2n1 (stereo unspecified) + Cc1cccc(N(C)C(=O)C2C(O)CCN2c2nc(C)cc(C(F)(F)F)c2C#N)c1,60%
5,CC1COCCN1c1cc(C2(O)CC3CCC(C2)O3)c2cnn(-c3ccn[nH]3)c2n1 (stereo unspecified) + COC1C(OC(N)=O)C(O)C(Oc2ccc3c(O)c(NC(=O)c4ccc(O)c(CC=C(C)C)c4)c(=O)oc3c2C)OC1(C)C,42.2%

# Same assay, conditions: 997537-175-T-J1-PDC complex spheroid viability, combination with POLQ inhibitors; second compound 0.0316 µM; first compound 1 µM; stronger effect = lower value
row,SMILES,"viability, T/C"
1,COc1cc2cc(C(=O)CCC(=O)O)sc2cc1OC + COC1C(OC(N)=O)C(O)C(Oc2ccc3c(O)c(NC(=O)c4ccc(O)c(CC=C(C)C)c4)c(=O)oc3c2C)OC1(C)C,92.5%
2,O=C(Nc1ccc(O)c(NS(=O)(=O)c2ccc(F)cc2)c1)c1ccc(-c2ccccc2)cc1 + Nc1ccc(C#CCN(C(=O)Cc2ncc(C(F)(F)F)cc2C(F)(F)F)c2ccc(F)cc2)nn1,99.1%
3,CC1COCCN1c1cc(-c2ccnn2C)c2ccnc(-c3ccn[nH]3)c2n1 (stereo unspecified) + Nc1ccc(C#CCN(C(=O)Cc2ncc(C(F)(F)F)cc2C(F)(F)F)c2ccc(F)cc2)nn1,49.4%
4,CC1COCCN1c1cc(C2(O)CC3CCC(C2)O3)c2cnn(-c3ccn[nH]3)c2n1 (stereo unspecified) + Cc1cccc(N(C)C(=O)C2C(O)CCN2c2nc(C)cc(C(F)(F)F)c2C#N)c1,52.8%
5,CC1COCCN1c1cc(C2(O)CC3CCC(C2)O3)c2cnn(-c3ccn[nH]3)c2n1 (stereo unspecified) + COC1C(OC(N)=O)C(O)C(Oc2ccc3c(O)c(NC(=O)c4ccc(O)c(CC=C(C)C)c4)c(=O)oc3c2C)OC1(C)C,36.9%

# Same assay, conditions: 997537-175-T-J1-PDC complex spheroid viability, combination with POLQ inhibitors; second compound 0.0316 µM; first compound 3.16 µM; stronger effect = lower value
row,SMILES,"viability, T/C"
1,COc1cc2cc(C(=O)CCC(=O)O)sc2cc1OC + COC1C(OC(N)=O)C(O)C(Oc2ccc3c(O)c(NC(=O)c4ccc(O)c(CC=C(C)C)c4)c(=O)oc3c2C)OC1(C)C,89.7%
2,O=C(Nc1ccc(O)c(NS(=O)(=O)c2ccc(F)cc2)c1)c1ccc(-c2ccccc2)cc1 + Nc1ccc(C#CCN(C(=O)Cc2ncc(C(F)(F)F)cc2C(F)(F)F)c2ccc(F)cc2)nn1,91.3%
